Experiments:
5-lipoxygenase = molecular target: T1, 5-lipoxygenase (Rattus norvegicus, UniProt P12527); experiment: 5-Lipoxygenase-inhibiting activity; type: biochemical; settings: RBL-1 cell supernatant; arachidonic acid 50 μg; 37° C., 15 min; 5-HETE by HPLC; read-out: 5-Lipoxygenase inhibiting activity, 50% Inhibition conc.
T1 construct: The supernatant is employed as an enzyme solution of a 5-lipoxygenase; endogenous in cells; host or cells: RBL-1 rat basophilic leukemia cells (supernatant of sonicated cells)
T1 sequence (P12527 1-673): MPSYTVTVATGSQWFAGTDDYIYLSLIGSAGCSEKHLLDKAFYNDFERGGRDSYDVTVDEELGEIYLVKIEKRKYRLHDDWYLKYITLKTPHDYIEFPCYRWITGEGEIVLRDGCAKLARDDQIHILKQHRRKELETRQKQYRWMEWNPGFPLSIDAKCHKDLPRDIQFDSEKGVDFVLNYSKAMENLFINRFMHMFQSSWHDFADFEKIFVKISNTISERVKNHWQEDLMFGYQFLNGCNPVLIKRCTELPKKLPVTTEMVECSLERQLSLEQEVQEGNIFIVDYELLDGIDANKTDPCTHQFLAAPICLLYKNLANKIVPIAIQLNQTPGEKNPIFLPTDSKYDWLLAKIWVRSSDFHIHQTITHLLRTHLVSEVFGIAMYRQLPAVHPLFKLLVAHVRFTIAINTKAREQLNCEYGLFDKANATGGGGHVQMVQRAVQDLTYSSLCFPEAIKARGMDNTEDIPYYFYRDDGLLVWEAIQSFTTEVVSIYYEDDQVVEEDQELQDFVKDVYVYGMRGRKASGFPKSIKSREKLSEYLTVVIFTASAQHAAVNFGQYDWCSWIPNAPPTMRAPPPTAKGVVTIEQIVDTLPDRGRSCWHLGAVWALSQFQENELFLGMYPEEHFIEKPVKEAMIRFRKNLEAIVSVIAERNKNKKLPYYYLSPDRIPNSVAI
Description: A suspension of rat-origin basophilic leukemia cell strain RBL-1 in an Eagle basal medium (manufactured by Gibco Laboratories) containing 10% FCS is cultivated in a 5% CO2 incubator at 37° C. The culture is then centrifuged at 4° C. to collect cells. The cells are re-suspended in a phosphate buffer solution at pH 7.4 to a cell density of 1.0×10^7 -3.0×10^7 cells/ml. The suspended cells are treated by an ultrasonic cell blender and then centrifuged at 15,000 rpm at 4° C. for 30 min. The supernatant is employed as an enzyme solution of a 5-lipoxygenase. In test tubes are placed 50 μg of arachidonic acid and a phenol derivative of the invention to be tested. To each of the test tubes are added 0.30 ml of phosphate buffer, 0.20 ml of the enzyme solution as prepared above and 5 μl of a 100 mM CaCl2 (calcium chloride) solution. The mixture is allowed to react at 37° C. for 15 min. To the reaction mixture, after ice-cooling, is added one drop of 1N HCl (hydrochloric acid), and the resulting mass is extracted with 2 ml of ethyl acetate. The extract is concentrated to dryness followed by the addition of 100 μl of methanol for use as a test specimen.
Said specimen is injected into octadecylsilane (ODS) reverse phase high performance liquid chromatography (HPLC), eluted with methanol - acetonitrile - water - acetic acid (15:45:35:0.01). Peak for 5-HETE (5-(s)-hydroxy-6,8,11,14-eicosatetraenoic acid), a 5-lipoxygenase product detected in approximately 25 min. is measured. The 5-lipoxygenase-inhibiting activity is determined by decrease in the peak for said 5-lipoxygenase product.
50% inhibitory concentration as referred to in the table means concentration of a phenol derivative required for controlling the production of […] as described above to 50% by introducing said phenol derivative when production of 5-HETE without phenol derivative of the invention is taken as 100%.

[1] = test system: ethanol hydrochloric acid ulcer; experiment: Inhibitory activity against ethanol hydrochloric acid ulcer; type: in vivo; settings: SD male rats, 30 mg/kg orally, 1 hour before 150 mM HCl in 60% ethanol
Description: To SD male rats (weighing 150-250 g) fasted for 24 hours was administered orally a phenol derivative of the invention at a dose of 30 mg/kg bodyweight. One hour later, a hydrochloric acid solution in ethanol (containing 150 mM hydrochloric acid in 60% ethanol) was orally given in a volume of 0.5 ml/100 g bodyweight.
One hour later, the animals were sacrificed with ether. The stomach was excised and, after formalin treatment, measured for the length (mm) of lesions developed in glandular portions of the stomach. Total length of the lesions per animal was taken as ulcer index.
Percent inhibition of ulceration as referred to in the table is a value obtained by reducing from 1 the ulcer index for the rat with a phenol derivative of the invention orally given divided by the ulcer index for the orally nonadministered rat and multiplying the value by 100. The calculation is conducted by the formula shown below. [formula]

histamine H2 receptors = molecular target: T2, histamine H2 receptors (Cavia porcellus, UniProt P47747); experiment: Antagonistic action against histamine H2 receptors (isolated right atrium); design: species or system Hartley male guinea pigs; settings: guinea pig isolated right atrium, 30° C.; concentration for two-fold shift of the histamine dose-response curve; read-out: Antagonistic action against histamine H2 receptors, pA2 (converted)
T2 construct: Excised right atrium of Hartley male guinea pigs; from tissue; host or cells: isolated right atrium of male Hartley guinea pigs
T2 sequence (P47747 whole entry): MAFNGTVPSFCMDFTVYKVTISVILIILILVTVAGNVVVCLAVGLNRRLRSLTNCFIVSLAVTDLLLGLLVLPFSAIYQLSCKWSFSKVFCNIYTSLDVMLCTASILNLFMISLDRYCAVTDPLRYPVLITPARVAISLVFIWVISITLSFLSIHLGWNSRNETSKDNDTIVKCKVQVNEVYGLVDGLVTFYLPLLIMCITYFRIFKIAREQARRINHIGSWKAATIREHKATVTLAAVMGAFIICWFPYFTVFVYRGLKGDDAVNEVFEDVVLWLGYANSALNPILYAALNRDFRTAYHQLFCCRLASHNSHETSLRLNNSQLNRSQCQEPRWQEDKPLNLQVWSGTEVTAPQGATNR
Description: Excised right atrium of Hartley male guinea pigs (weighing 450-550 g) was used. Thus, the guinea pig was fainted by strongly hitting the occipital region, and then the chest opened to isolate the heart. The isolated heart was immersed in a Krebs-Henseleit nutrient solution at 30° C. which had sufficiently been aerated with 95% O2 +5% CO2. The right atrium with the right cardiac auricle attached thereto was separated carefully enough to avoid damages. Blood vessels and tissues attached around the separated organ were removed. Both ends of the separated right cardiac auricle were held with threaded Serfin, and the thread at one end was fixed in a tissue tank filled with the nutrient solution, and the thread at the other end connected to a tension measuring and recording instrument and loaded with 1-g weight. The nutrient solution in the tissue tank was maintained at a temperature of 30° C. and consistently aerated with a 95% O2 +5% CO2 gas. The nutrient solution was exchanged every 5-10 min.
After spontaneous contractions of the isolated right atrium specimen were stabilized, and the heart rate became constant, histamine was cumulatively introduced into the tissue tank. Thus, histamine was introduced cumulatively starting at 10^-7 M and gradually at 3×10^-7 M, 10^-6 M, […], and so on. When the heart rate became constant at a given concentration, the concentration was further increased, and the cumulative introduction of histamine was continued until the heart rate no more increased. There was then determined a histamine dose-response curve.
Antagonistic action of the phenol derivatives of the invention against histamine H2 receptors was tested using the isolated right atrium specimen previously employed for determining a histamine dose-response curve. Thus, said specimen with the increased heart rate by the cumulative introduction of histamine was repeatedly washed with a nutrient solution to remove the histamine. When the heart rate was decreased by the histamine removal to a constant level, a phenol derivative of the invention was introduced into the tissue tank. After the introduction of said phenol derivative, histamine was cumulatively introduced sufficiently to determine a histamine dose-response curve in the presence of said phenol derivative. Antagonistic action of the phenol derivatives of the invention is determined by measuring the distance (mm) at 50% reaction between the dose-response curve in the absence of said phenol derivative and one in the presence of said phenol derivative and calculating pA2 on the basis of the distance from the Van Rossum simplified table.
Note that the pA2 in the table means a -log value of the concentration of a phenol derivative of the invention necessary for parallel displacement of the histamine dose-response curve to the side of a twice increase in concentration.

Compound | IC50 (5-lipoxygenase) [µM] | Kb (histamine H2 receptors) [nM] | Inhibitory activity against ethanol hydrochloric acid ulcer, Percent inhibition of ulceration [1] [%]
CC(C)(C)c1cc(CCCCC(=O)NCCCOc2cccc(CN3CCCCC3)c2)cc(C(C)(C)C)c1O [Example 3, N-[3-(3-(1-piperidinylmethyl)phenoxy)propyl]-5-(3,5-di-tert-butyl-4-hydroxyphenyl)pentylamide] | 20 | 2570 | 42.9
O=C(CCCCc1ccc(O)cc1)NCCCOc1cccc(CN2CCCCC2)c1 [Example 2, N-[3-(3-(1piperidinylmethyl)phenoxy)propyl]-5-(4-hydroxyphenyl)-pentylamide] | 120 | 316 | 33.4
COc1cc(CCCCC(=O)NCCCOc2cccc(CN3CCCCC3)c2)ccc1O [Example 1, N-[3-(3(1-piperidinylmethyl)phenoxy)propyl]-5-(4-hydroxy-3methoxyphenyl)pentylamide] | 6.1 | 57.5 | 89.5

Second part, led by results:

IC50 (5-lipoxygenase) [µM] | Kb (histamine H2 receptors) [nM] | Compound | Inhibitory activity against ethanol hydrochloric acid ulcer, Percent inhibition of ulceration [1] [%]
8.9 | 50.1 | COc1cc(CCCC(=O)NCCCOc2cccc(CN3CCCCC3)c2)ccc1O [Example 6, N-[3-(3-(1-piperidinylmethyl)phenoxy)propyl]-4-(4-hydroxy-3-methoxyphenyl)butylamide] | 76.5
5.9 | 141 | O=C(CCCCc1ccc(O)c(O)c1)NCCCOc1cccc(CN2CCCCC2)c1 [Example 7, N-[3-(3-(1piperidinylmethyl)phenoxy)propyl]-5-(3,4dihydroxyphenyl)pentylamide] | 83.7
32 | 631 | COc1cc(CCC(=O)NCCCOc2cccc(CN3CCCCC3)c2)ccc1O [Example 5, N-[3-(3-(1-piperidinylmethyl)phenoxy)propyl]-3-(4-hydroxy-3-methoxyphenyl)propylamide] | 48.0
13 | 490 | COc1cc(CCCCC(=O)NCCCOc2cccc(CN3CCCCC3)c2)cc(OC)c1O [Example 4, N-[3-(3-(1-piperidinylmethyl)phenoxy)propyl]-5-(4-hydroxy-3,5-dimethoxyphenyl)pentylamide] | 62.5
